We go through 24 molecules from ChEMBL document CHEMBL5576123, “Interaction of Cephalosporins with Human Serum Albumin: A Structural Study” (J Med Chem, 2024).

≈ marks a conversion by molar mass, not a printed value. Calls of active or inactive are those of the source. The rule behind the calls is not given here. Some results are limits rather than exact numbers.

Series [1] can be described thus: Protein binding in plasma (unknown origin). To be noted: read-out: PPB (converted). The class given is ADME, cell-free.
Series [2] concerns Escherichia coli. The series can be described thus: Antibacterial activity against Escherichia coli ATCC 25922 assessed as inhibition of bacterial growth at 0.6 mM incubated for 24 hrs by broth microdilution method. The series is classed as functional, organism-based.
The target of series [3] is T1, Albumin (Homo sapiens, UniProt P02768). Description: Binding affinity to human serum albumin incubated for 18 hrs by equilibrium dialysis method. To be noted: isolated protein. The series is classed as ADME.
T1 sequence (P02768 whole entry): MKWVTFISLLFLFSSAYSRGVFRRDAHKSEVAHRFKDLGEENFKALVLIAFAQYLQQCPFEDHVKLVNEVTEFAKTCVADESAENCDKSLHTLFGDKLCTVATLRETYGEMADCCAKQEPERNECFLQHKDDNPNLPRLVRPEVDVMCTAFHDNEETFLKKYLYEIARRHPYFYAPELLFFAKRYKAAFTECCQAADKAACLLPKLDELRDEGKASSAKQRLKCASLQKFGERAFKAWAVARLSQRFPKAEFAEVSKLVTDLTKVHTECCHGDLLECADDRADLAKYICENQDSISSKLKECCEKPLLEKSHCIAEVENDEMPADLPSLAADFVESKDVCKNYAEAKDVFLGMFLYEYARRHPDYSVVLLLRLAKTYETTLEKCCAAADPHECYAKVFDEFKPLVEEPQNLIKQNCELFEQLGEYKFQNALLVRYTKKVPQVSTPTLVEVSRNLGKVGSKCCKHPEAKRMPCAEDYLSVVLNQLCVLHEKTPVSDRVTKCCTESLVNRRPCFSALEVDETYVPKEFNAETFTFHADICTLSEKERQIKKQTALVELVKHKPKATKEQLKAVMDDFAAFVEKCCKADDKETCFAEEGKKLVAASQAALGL
Series [4] deals with Escherichia coli. The series can be described thus: Antibacterial activity against Escherichia coli ATCC 25922 assessed as inhibition of bacterial growth incubated for 24 hrs in presence of HSA by broth microdilution method. The series is classed as functional.
In series [5] the target is T1, Albumin. The series can be described thus: Binding affinity to human serum albumin incubated for 18 hrs in presence of 40 uM bicalutamide by equilibrium dialysis method. The series is classed as ADME. The settings on record: isolated protein.
For series [6], the system named is Escherichia coli. Description: Antibacterial activity against Escherichia coli ATCC 25922 assessed as inhibition of bacterial growth incubated for 24 hrs in presence of warfarin by broth microdilution method. The class given is functional.
Series [7] deals with Escherichia coli. Description: Antibacterial activity against Escherichia coli ATCC 25922 assessed as inhibition of bacterial growth incubated for 24 hrs in absence of HSA by broth microdilution method. The series is classed as functional.
Series [8] has as its target T1, Albumin. The series can be described thus: Binding affinity to human serum albumin incubated for 18 hrs in presence of 80 uM bicalutamide by equilibrium dialysis method. The series is classed as ADME. To be noted: isolated protein.
In series [9] the test system is Escherichia coli. The series can be described thus: Antibacterial activity against Escherichia coli ATCC 25922 assessed as inhibition of bacterial growth at 0 to 8 ug/ml incubated for 24 hrs in presence of HSA by broth microdilution method. The series is classed as functional, organism-based. The settings on record: dose 0-8 µg/ml.
Series [10] deals with Escherichia coli. The series can be described thus: Ratio of MIC>90 against Escherichia coli ATCC 25922 in presence of HSA to MIC>90 against Escherichia coli ATCC 25922 in absence of HSA. The class given is functional.

Consider `CO/N=C(\C(=O)N[C@@H]1C(=O)N2C(C(=O)O)=C(COC(N)=O)CS[C@H]12)c1ccco1` [CEFUROXIME], for which the fraction unbound in series [1] is 0.5. For `Nc1nc(/C(=C/CC(=O)O)C(=O)N[C@@H]2C(=O)N3C(C(=O)O)=CCS[C@H]23)cs1` [CEFTIBUTEN], the fraction unbound in [1] is 0.35. Same read-out and setting: the figure for `CO/N=C(\C(=O)N[C@@H]1C(=O)N2C(C(=O)O)=C(COC(C)=O)CS[C@H]12)c1csc(N)n1` [CEFOTAXIME] is 0.5. On the same count and under the same terms, the figure for `CO/N=C(\C(=O)N[C@@H]1C(=O)N2C(C(=O)[O-])=C(C[n+]3cccc4c3CCC4)CS[C@H]12)c1csc(N)n1` [CEFPIROME] is 0.9. Take `CC(O)(CS(=O)(=O)c1ccc(F)cc1)C(=O)Nc1ccc(C#N)c(C(F)(F)F)c1` (centres undefined): the outcome in [2] was inactive. In the case of `CO/N=C(\C(=O)N[C@@H]1C(=O)N2C(C(=O)O)=C(CSc3nc(=O)c(=O)[nH]n3C)CS[C@H]12)c1csc(N)n1` [CEFTRIAXONE], the K is reported as 8.5 10^4/M in [3], 5.01 10^4/M in [5] and 1.3 10^4/M in series [8]. Besides, the MIC90 in [4] is 1 µg/mL; in series [6], 0.25 µg/mL; in series [7], at most 0.12 µg/mL. Further, in series [1], the fraction unbound is 0.05. As for `CN1C(=O)CN=C(c2ccccc2)c2cc(Cl)ccc21`, the result in series [2] was inactive. Take `CO/N=C(\C(=O)N[C@@H]1C(=O)N2C(C(=O)[O-])=C(C[N+]3(C)CCCC3)CS[C@H]12)c1csc(N)n1`: the fraction unbound in series [1] is 0.8.

Consider `CO[C@@]1(NC(=O)C2SC(=C(C(N)=O)C(=O)O)S2)C(=O)N2C(C(=O)O)=C(CSc3nnnn3C)CS[C@@H]21` (some centres undefined) [CEFOTETAN], for which the outcome in series [9] was inactive. Moreover, the fraction unbound in [1] was 0.12. In the case of `CC=CC1=C(C(=O)O)N2C(=O)[C@@H](NC(=O)[C@H](N)c3ccc(O)cc3)[C@H]2SC1` [CEFPROZIL], the fraction unbound in series [1] was 0.64.

In the case of `CCO/N=C(\C(=O)N[C@@H]1C(=O)N2C(C(=O)[O-])=C(Sc3nc(-c4cc[n+](C)cc4)cs3)CS[C@H]12)c1nsc(N)n1` [CEFTAROLINE], in series [1], the fraction unbound is 0.8. Still for that read-out and setting: the figure for `CC(C)(O/N=C(\C(=O)N[C@@H]1C(=O)N2C(C(=O)[O-])=C(C[n+]3ccccc3)CS[C@H]12)c1csc(N)n1)C(=O)O` [CEFTAZIDIME] is 0.91; for `C=CC1=C(C(=O)O)N2C(=O)[C@@H](NC(=O)/C(=N\O)c3csc(N)n3)[C@H]2SC1` it is 0.3; for `Cn1c(N)c(NC(=O)NCCN)c[n+]1CC1=C(C(=O)O)N2C(=O)[C@@H](NC(=O)/C(=N\OC(C)(C)C(=O)[O-])c3nsc(N)n3)[C@H]2SC1` [CEFTOLOZANE] it is 0.8.

Take `CO/N=C(\C(=O)N[C@@H]1C(=O)N2C(C(=O)O)=CCS[C@H]12)c1csc(N)n1` [CEFTIZOXIME]: the fraction unbound in series [1] was 0.7. On the same count and under the same terms, the figure for `C=CC1=C(C(=O)O)N2C(=O)[C@@H](NC(=O)/C(=N\OCC(=O)O)c3csc(N)n3)[C@H]2SC1` [CEFIXIME] is 0.35; for `COCC1=C(C(=O)O)N2C(=O)[C@@H](NC(=O)/C(=N\OC)c3csc(N)n3)[C@H]2SC1` [CEFPODOXIME] it is 0.17; for `CC1=C(C(=O)O)N2C(=O)[C@@H](NC(=O)[C@H](N)c3ccc(O)cc3)[C@H]2SC1` [CEFADROXIL] it is 0.8.

For `Cc1nnc(SCC2=C(C(=O)O)N3C(=O)[C@@H](NC(=O)Cn4cnnn4)[C@H]3SC2)s1` [CEFAZOLIN], the MIC90 was determined as 4 µg/mL in series [4] and 2 µg/mL (≈ 4.4 µM) in series [7]. Besides, the Ratio in [10] was determined as 2. In series [1], the fraction unbound is 0.2. As for `CO[C@@]1(NC(=O)Cc2cccs2)C(=O)N2C(C(=O)O)=C(COC(N)=O)CS[C@@H]21` [CEFOXITIN], the fraction unbound in [1] was 0.21. Still for that read-out and setting: the figure for `CO/N=C(\C(=O)N[C@@H]1C(=O)N2C(C(=O)O)=C(/C=C\c3scnc3C)CS[C@H]12)c1csc(N)n1` [CEFDITOREN] is 0.12; for `N[C@@H](C(=O)N[C@@H]1C(=O)N2C(C(=O)O)=C(Cl)CS[C@H]12)c1ccccc1` [CEFACLOR ANHYDROUS] it is 0.75. As to `CCCCC1C(=O)N(c2ccccc2)N(c2ccccc2)C1=O`, the outcome in [2] was inactive.

Take `Nc1nc(/C(=N/O)C(=O)N[C@@H]2C(=O)N3C(C(=O)O)=C(/C=C4\CCN([C@@H]5CCNC5)C4=O)CS[C@H]23)ns1` [CEFTOBIPROLE]: in series [1], the fraction unbound is 0.84.
